1 compound from US20210062178A1, “NOVEL XYLOSE ISOMERASE GENE AND POLYPEPTIDE AND USES THEREOF” (The Regents of the University of California, priority 2019, published 2021) can be followed below.

In the experiment the test system is new D-xylose isomerase (XI) 8454_2 from the gut of Odontotaenius disjunctus, SEQ ID NO: 2. The experiment can be described thus: Enzymatic activity of xylose isomerase in crude cell extracts, coupled sorbitol dehydrogenase (SDH) assay, NADH depletion at 340 nm. In kind it is biochemical. Here is the method:
This clone was then was cultivated in liquid medium containing xylose as the sole carbon source in parallel with an identical clone carrying the same metabolic pathway, but instead expressing a XI from Piromyces sp (opt.PiXI). Opt.PiXI is a codon-optimized version of the XI gene from Piromyces sp.
Specific enzymatic activity was measured using a coupled enzyme (sorbitol dehydrogenase—SDH) that converts the product of XI (xylulose) into xylitol. In this process, for each molecule of xylose converted to xylulose, a molecule of NADH is converted in NAD+. NADH depletion is quantified by spectrophotometry at an optical density of 340 nm, and XI activity is stoichiometrically inferred. For the enzymatic activity, crude cell extracts were prepared using the same conditions for both strains (carrying 8454_2 or opt.PiXI genes) and immediately used.

Turning to `OC1OC[C@@H](O)[C@H](O)[C@H]1O` (stereo partly drawn) [D-xylose], under “compared with XI from Piromyces sp. (opt.PiXI) under identical biological backgrounds and experimental conditions”, the “isomerization maximal velocity (Vmax) relative to the XI from Piromyces sp.” value is reported as “three times higher”. The Km (as a rule, the concentration of substrate that gives half-maximal velocity) (new XI, expressed in S. cerevisiae) amounted to 19 mM.
